{"source": "patent US8664246B2", "about": "“Substituted pyridines, and use thereof as GSK3 inhibitors” (Bayer Intellectual Property GmbH, priority 2008, dated 2014)"}
{"molecular_target": "T1, GSK3β (Homo sapiens, UniProt P49841)", "T1 construct": "purchased Upstate 14-306", "T1 sequence (P49841 whole entry)": "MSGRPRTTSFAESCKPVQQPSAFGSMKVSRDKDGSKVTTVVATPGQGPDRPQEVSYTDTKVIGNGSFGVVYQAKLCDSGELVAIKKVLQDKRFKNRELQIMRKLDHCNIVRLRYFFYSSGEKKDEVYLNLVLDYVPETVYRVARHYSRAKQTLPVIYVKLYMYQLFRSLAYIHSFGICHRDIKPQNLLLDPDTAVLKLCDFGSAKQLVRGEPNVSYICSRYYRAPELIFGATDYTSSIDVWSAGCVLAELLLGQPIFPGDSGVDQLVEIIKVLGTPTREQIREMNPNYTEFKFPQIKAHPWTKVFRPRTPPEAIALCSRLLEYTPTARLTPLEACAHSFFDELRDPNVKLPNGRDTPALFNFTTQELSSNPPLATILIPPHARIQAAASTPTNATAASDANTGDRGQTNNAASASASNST", "test": "In vitro biochemical GSK3β inhibition assay (pyruvate kinase/lactate dehydrogenase-coupled, NADH fluorescence)", "settings": "5 nM GSK3β, 40 μM GSK3β substrate GSM, 50 μM ATP, 30° C. for 2 hours", "method": "The inhibitory activity of active substances is determined in a biochemical assay. The ingredients required for this purpose are mixed in a black 384-well microtitre plate with transparent base (from Greiner, catalogue number 781092). The ingredients required for each well of the 384-well microtitre plate are 5 nM GSK3β (from Upstate, catalogue number 14-306), 40 μM GSK3β substrate GSM (sequence H-RRRPASVPPSPSLSRHS-(pS)-HQRR, from Upstate, catalogue number 2-533), 30 μM nicotinamide adenine dinucleotide NADH (Roche Diagnostics, catalogue number 10107735), 50 μM adenosine triphosphate ATP (from Sigma, catalogue number A7966), 2 mM phosphoenolpyruvate (from Roche, catalogue number 128112), and approx. 1 U/ml pyruvate kinase and approx. 1 U/ml lactate dehydrogenase, which are present together in a stock formulation (from Roche, catalogue number 10737291001, suspension with approx. 450 U/ml pyruvate kinase activity, approx. 450 U/ml lactate dehydrogenase activity in […] ammonium sulphate solution pH 6). 1 unit of pyruvate kinase converts 1 μmol of phosphoenolpyruvate to pyruvate per minute at pH 7.6 and 37° C., and 1 unit of lactate dehydrogenase reduces 1 μmol of pyruvate to lactate per minute at pH 7.5 and 37° C. The reaction buffer required, in which the biochemical reaction proceeds, consists of 50 mM Trizma hydrochloride Tris-HCl pH: 7.5 (from Sigma, catalogue number T3253), 5 mM magnesium chloride MgCl2 (from Sigma, catalogue number M8266), 0.2 mM DL-dithiothreitol DTT (from Sigma, catalogue number D9779), 2 mM ethylenediamine ether tetraacid EDTA (from Sigma, catalogue number E6758), 0.01% Triton X-100 (from Sigma, catalogue number T8787) and 0.05% bovine serum albumin BSA (from Sigma, catalogue number B4287).\nActive substances are dissolved in dimethyl sulphoxide DMSO (from Sigma, catalogue number D8418) in a concentration of 10 mM. Active substances are added in serial concentrations of 10 μM, 1 μM, 0.1 μM, 0.01 μM, 0.001 μM, 0.0001 μM, 0.00001 μM, 0.000001 μM to the mixtures of the biochemical reaction. As control, dimethyl sulphoxide is added instead of substance in a final concentration of 0.1%.\nThe reaction is incubated at 30° C. for 2 hours and then the resulting fluorescence is measured in a Tecan Safire-XFLUOR4 instrument, version V4.50 (serial number 12901300283) with the specifications: measurement mode—fluorescence measured from below, excitation wavelength 340 nm, emission wavelength 465 nm, excitation slit width 5 nm, emission slit width 5 nm, gain mode 120, delay 0 μs, number of light flashes per measurement 3, and an integration time of 40 μs.\nThe activity of the active substances is calculated in relation to these 0% and 100%.", "units": {"IC50": "nM"}}
{"compound": "N#Cc1ccc(-c2ccc(Cl)cc2Cl)nc1N1CCCC(Nc2ccc(C(=O)C(F)(F)F)c(N)n2)C1", "note": "(single isomer, unassigned) [Example Ent-B-2, 2-(3-{[6-amino-5-(trifluoroacetyl)pyridin-2-yl]amino}piperidin-1-yl)-6-(2,4-dichlorophenyl)pyridine-3-carbonitrile]", "IC50": 5.04}
{"compound": "COc1ccccc1-c1ccc(C(=O)N2CCN(C(C)C)CC2)c(N2CCCC(Nc3ccc(C(=O)C(F)(F)F)c(N)n3)C2)n1", "note": "(single isomer, unassigned) [Example Ent-B-12, 1-[2-amino-6-({1-[6-(2-methoxyphenyl)-3-{[4-(propan-2-yl)-piperazin-1-yl]carbonyl}pyridin-2-yl]piperidin-3-yl}amino)pyridin-3-yl]-2,2,2-trifluoroethanone]", "IC50": 6.3}
{"compound": "N#Cc1ccc(NC2CCCN(c3nc(-c4ccc(Cl)cc4Cl)ccc3C#N)C2)nc1N", "note": "(stereo not shown) [Example 6, 2-Amino-6-({1-[3-cyano-6-(2,4-dichlorophenyl)pyridin-2-yl]piperidin-3-yl}amino)-pyridine-3-carbonitrile]", "IC50": 26}
{"compound": "N#Cc1ccc(NC2CCCN(c3nc(-c4ccc(Cl)cc4Cl)ccc3C#N)C2)nc1", "note": "(stereo not shown) [Example 7, 2-{3-[(5-Cyanopyridin-2-yl)amino]piperidin-1-yl}-6-(2,4-dichlorophenyl)pyridine-3-carbonitrile]", "IC50": 12}
